Paper PMC8213057, “Targeting ALK2: An Open Science Approach to Developing Therapeutics for the Treatment of Diffuse Intrinsic Pontine Glioma” (Journal of Medicinal Chemistry, 2020)

How the values were obtained:
EPHB3 = target: T1, EPHB3 (Homo sapiens, UniProt P54753); conditions: 1 μM; Run 1, Run 2
T1 sequence (P54753 34-998): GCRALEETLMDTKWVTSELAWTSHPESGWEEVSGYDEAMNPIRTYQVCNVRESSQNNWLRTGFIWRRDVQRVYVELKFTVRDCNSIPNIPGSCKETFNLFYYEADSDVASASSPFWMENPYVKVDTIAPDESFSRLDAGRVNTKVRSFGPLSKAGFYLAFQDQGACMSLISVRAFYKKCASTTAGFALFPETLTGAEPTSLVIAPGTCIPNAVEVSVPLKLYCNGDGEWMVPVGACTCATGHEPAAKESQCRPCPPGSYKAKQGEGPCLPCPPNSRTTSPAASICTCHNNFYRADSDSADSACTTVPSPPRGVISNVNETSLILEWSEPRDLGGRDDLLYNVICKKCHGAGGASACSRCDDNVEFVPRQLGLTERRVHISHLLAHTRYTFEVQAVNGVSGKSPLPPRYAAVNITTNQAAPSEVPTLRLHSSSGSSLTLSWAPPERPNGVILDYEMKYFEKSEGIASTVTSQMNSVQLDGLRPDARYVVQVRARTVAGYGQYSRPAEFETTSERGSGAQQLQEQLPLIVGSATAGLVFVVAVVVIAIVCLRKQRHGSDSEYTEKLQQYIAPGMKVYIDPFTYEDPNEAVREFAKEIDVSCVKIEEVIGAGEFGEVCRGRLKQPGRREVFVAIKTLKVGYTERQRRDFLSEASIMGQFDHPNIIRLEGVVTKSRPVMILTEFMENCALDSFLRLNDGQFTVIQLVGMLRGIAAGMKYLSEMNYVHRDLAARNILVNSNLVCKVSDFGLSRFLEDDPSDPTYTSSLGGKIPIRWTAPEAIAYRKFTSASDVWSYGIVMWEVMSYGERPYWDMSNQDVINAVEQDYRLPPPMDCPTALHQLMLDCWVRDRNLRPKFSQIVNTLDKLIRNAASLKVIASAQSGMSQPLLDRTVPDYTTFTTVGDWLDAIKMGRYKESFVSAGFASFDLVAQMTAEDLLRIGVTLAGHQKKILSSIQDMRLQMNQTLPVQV

ERK2/MAPK1 [1] = target: T2, ERK2/MAPK1 (Homo sapiens, UniProt P28482); conditions: 1 μM; Run 1, Run 2
T2 sequence (P28482 whole entry): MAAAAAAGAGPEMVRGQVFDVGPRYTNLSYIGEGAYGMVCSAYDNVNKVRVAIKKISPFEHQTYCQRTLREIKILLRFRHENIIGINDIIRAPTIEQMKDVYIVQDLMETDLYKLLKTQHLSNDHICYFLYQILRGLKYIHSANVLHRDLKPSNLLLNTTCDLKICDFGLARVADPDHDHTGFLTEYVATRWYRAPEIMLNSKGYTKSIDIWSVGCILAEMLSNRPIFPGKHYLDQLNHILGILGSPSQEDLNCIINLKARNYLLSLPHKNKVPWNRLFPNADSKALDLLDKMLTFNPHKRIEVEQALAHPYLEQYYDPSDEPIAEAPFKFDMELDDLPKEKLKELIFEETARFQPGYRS

MEK3 = target: T3, MEK3 (Homo sapiens, UniProt P46734); assay: biochemical; conditions: read-out: % enzyme activity, 1 μM; Run 1, Run 2
T3 sequence (P46734 1-347): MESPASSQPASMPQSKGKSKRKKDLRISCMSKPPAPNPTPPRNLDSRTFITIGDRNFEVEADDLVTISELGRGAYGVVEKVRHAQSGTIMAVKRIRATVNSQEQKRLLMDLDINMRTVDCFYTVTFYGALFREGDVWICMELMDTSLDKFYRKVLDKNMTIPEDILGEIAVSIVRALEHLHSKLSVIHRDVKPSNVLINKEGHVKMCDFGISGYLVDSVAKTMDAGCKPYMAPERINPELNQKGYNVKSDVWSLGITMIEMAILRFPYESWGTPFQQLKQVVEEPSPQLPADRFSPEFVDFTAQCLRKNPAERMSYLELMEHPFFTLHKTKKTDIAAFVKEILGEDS

SGK3/SGKL = target: T4, SGK3/SGKL (Homo sapiens, UniProt Q96BR1); conditions: 1 μM; Run 1, Run 2
T4 sequence (Q96BR1 1-496): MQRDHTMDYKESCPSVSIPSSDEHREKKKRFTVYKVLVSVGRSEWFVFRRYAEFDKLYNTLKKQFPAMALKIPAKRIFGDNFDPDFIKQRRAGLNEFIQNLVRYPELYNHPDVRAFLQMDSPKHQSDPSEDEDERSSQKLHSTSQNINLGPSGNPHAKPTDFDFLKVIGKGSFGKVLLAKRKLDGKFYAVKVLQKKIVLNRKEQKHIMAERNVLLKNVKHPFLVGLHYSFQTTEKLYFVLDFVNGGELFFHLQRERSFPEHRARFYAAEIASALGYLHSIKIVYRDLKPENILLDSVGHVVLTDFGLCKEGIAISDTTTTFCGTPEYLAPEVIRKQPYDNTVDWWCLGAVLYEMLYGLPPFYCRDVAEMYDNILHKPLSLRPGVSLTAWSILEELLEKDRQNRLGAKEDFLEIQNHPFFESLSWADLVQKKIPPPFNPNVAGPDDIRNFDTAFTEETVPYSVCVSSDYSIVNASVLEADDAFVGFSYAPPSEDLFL

PKN2/PRK2 = PKN2/PRK2 (Homo sapiens, UniProt Q16513); conditions: 1 μM; Run 1, Run 2
Chain of PKN2/PRK2 (Q16513 whole entry): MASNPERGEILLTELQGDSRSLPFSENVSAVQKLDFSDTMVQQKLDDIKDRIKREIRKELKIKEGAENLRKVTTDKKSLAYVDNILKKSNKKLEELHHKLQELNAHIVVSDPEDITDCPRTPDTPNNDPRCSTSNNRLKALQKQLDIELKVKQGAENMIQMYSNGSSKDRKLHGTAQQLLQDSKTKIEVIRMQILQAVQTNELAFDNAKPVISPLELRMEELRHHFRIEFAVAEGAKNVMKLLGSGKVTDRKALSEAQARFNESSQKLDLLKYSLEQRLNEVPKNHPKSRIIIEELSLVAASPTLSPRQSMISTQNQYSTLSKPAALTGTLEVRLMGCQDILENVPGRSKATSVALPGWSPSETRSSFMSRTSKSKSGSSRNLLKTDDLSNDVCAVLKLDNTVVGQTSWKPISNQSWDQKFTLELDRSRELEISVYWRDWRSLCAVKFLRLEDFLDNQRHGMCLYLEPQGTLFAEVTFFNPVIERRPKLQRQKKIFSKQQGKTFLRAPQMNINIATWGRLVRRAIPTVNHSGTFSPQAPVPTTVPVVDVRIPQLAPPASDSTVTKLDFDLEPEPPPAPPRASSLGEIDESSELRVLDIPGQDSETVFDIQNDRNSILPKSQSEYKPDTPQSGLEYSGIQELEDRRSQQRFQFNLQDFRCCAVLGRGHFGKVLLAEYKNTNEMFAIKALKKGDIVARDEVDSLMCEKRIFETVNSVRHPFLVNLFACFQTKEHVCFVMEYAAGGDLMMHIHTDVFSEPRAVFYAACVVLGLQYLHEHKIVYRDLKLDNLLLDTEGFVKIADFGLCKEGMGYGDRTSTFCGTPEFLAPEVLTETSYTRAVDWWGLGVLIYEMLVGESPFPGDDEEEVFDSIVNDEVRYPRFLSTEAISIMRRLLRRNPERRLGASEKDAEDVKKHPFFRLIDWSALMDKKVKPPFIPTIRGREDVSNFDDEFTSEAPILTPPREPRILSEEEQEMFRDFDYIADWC

FAK/PTK2 = FAK/PTK2 (Homo sapiens, UniProt Q05397); assay: biochemical; conditions: read-out: % enzyme activity, 1 μM; Run 1, Run 2
Chain of FAK/PTK2 (Q05397 whole entry): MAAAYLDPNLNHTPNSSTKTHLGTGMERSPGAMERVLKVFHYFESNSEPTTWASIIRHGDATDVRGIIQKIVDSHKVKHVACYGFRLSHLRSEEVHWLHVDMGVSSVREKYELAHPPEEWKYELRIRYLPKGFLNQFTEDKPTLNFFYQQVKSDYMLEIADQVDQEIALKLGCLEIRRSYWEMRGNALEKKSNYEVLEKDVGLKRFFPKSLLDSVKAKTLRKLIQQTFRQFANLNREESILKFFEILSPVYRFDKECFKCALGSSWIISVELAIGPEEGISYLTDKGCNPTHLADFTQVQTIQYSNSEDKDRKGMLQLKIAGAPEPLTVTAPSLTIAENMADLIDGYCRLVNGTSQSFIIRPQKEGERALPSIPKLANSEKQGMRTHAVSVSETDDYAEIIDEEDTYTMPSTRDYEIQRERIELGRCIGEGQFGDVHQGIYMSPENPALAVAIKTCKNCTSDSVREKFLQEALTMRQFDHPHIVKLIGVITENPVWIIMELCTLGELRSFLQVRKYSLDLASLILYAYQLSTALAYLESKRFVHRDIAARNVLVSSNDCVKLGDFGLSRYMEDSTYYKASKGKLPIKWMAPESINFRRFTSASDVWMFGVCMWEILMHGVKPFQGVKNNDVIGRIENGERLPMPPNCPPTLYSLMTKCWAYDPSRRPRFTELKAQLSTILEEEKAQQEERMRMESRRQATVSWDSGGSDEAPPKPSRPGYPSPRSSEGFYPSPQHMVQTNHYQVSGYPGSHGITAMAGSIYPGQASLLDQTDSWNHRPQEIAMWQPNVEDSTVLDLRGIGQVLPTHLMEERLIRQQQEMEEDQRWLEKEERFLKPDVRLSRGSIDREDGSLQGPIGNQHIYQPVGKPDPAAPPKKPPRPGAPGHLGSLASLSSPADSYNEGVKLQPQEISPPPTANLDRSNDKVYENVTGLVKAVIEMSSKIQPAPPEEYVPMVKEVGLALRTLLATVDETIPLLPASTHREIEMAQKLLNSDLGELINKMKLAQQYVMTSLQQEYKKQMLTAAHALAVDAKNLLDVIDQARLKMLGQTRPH

YES/YES1 = YES/YES1 (Homo sapiens, UniProt P07947); assay: biochemical; conditions: read-out: % enzyme activity, 1 μM; Run 1, Run 2
Chain of YES/YES1 (P07947 whole entry): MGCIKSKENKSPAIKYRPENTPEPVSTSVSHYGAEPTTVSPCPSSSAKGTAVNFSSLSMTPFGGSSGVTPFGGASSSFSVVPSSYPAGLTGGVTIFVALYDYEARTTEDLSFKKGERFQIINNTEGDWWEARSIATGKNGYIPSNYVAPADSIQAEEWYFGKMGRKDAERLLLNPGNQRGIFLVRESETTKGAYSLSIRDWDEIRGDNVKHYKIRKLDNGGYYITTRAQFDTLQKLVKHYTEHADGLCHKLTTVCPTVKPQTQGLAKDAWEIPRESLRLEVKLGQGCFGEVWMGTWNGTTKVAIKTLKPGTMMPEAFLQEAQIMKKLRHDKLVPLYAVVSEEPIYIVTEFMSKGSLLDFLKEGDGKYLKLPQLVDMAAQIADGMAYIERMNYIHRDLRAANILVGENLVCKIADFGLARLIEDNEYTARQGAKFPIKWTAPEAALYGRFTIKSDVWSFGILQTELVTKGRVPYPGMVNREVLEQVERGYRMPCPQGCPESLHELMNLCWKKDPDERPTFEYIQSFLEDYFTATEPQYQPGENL

ERK2/MAPK1 [2] = target: T2, ERK2/MAPK1; assay: biochemical; conditions: read-out: % enzyme activity, 1 μM; Run 1, Run 2
CDK3/cyclin E = CDK3/cyclin E (Homo sapiens, UniProt Q00526); conditions: 1 μM; Run 1, Run 2
Chain of CDK3/cyclin E (Q00526 whole entry): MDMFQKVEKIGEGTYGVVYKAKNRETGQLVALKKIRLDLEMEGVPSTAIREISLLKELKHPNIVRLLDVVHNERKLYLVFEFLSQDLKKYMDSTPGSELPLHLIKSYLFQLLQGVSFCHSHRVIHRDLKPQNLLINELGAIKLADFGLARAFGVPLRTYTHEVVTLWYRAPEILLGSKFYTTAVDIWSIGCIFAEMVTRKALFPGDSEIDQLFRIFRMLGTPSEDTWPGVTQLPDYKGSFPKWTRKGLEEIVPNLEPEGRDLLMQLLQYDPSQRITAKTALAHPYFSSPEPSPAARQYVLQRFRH
Chain of CDK3/cyclin E (P24864 whole entry, further chain): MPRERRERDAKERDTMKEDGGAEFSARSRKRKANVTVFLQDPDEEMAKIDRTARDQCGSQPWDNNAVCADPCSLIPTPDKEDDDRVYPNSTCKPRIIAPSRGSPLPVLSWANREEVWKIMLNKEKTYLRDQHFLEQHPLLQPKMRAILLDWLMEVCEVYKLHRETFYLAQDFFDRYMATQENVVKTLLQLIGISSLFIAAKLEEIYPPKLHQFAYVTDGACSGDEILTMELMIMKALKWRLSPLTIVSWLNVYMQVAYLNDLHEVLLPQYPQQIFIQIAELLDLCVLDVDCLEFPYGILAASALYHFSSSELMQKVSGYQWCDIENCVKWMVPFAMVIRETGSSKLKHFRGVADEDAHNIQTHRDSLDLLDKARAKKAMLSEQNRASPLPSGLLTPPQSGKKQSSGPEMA

VRK1 = target: T5, VRK1 (Homo sapiens, UniProt Q99986); assay: biochemical; conditions: read-out: % enzyme activity, 1 μM; Run 1, Run 2
T5 sequence (Q99986 1-396): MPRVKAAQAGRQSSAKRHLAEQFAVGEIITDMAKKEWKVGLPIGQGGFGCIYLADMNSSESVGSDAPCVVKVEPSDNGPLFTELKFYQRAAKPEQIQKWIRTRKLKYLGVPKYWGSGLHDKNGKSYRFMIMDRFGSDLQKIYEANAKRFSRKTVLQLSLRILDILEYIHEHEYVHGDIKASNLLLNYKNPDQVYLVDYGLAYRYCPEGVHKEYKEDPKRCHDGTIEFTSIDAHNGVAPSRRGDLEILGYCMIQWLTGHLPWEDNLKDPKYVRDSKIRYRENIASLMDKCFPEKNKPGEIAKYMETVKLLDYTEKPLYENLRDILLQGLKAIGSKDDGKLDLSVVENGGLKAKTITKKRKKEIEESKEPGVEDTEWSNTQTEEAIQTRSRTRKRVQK

p70S6K/RPS6KB1 = p70S6K/RPS6KB1 (Homo sapiens, UniProt P23443); assay: biochemical; conditions: read-out: % enzyme activity, 1 μM; Run 1, Run 2
Chain of p70S6K/RPS6KB1 (P23443 whole entry): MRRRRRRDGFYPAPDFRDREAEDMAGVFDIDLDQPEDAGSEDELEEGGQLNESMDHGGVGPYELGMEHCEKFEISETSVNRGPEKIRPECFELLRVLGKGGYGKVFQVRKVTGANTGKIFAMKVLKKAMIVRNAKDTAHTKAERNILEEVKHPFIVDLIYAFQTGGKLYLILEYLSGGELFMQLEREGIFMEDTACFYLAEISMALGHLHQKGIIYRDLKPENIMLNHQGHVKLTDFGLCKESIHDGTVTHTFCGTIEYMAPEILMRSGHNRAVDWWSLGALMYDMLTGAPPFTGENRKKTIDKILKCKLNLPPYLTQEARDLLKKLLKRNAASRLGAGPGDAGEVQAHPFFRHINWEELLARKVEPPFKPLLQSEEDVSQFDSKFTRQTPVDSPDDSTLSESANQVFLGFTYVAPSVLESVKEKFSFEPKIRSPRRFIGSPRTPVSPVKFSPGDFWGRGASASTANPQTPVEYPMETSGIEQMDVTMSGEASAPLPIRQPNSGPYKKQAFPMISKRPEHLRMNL

SMILES | % enzyme activity (EPHB3) | % enzyme activity (ERK2/MAPK1 [1]) | remaining activity at 1 µM (MEK3) | % enzyme activity (SGK3/SGKL) | % enzyme activity (PKN2/PRK2) | remaining activity at 1 µM (FAK/PTK2) | remaining activity at 1 µM (YES/YES1) | remaining activity at 1 µM (ERK2/MAPK1 [2]) | % enzyme activity (CDK3/cyclin E) | remaining activity at 1 µM (VRK1) | remaining activity at 1 µM (p70S6K/RPS6KB1)
COc1cc(-c2cncc(-c3ccc(N4CCN(C)CC4)cc3)c2C)cc(F)c1C(N)=O [Compound 26a, 2-Fluoro-6-methoxy-4-(4-methyl-5-(4-(4-methylpiperazin-1-yl)phenyl)pyridin-3-yl)benzamide] | 95.16% | 91.58% | 102% | 99.35% | 91.84% | 94% | 105% | 92.5% | 81.63% | 104% | 97.8%
COc1cc(-c2cncc(-c3ccc(N4C[C@@H](C)N(C)[C@@H](C)C4)cc3)c2C)cc(F)c1C(N)=O [Compound 26c, 2-Fluoro-6-methoxy-4-(4-methyl-5-(4-((3R,5S)-3,4,5-trimethylpiperazin-1-yl)phenyl)pyridin-3-yl)benzamide] | 96.08% | 87.49% | 101% | 93.33% | 95.77% | 95.4% | 109% | 89.8% | 78.38% | 102% | 100%
